Test results: ChEMBL document CHEMBL3885861, “Open TG-GATES”

Species on record: Rattus norvegicus
Test: Open TG-GATES - Regimen: Daily Repeat
Assay type: toxicity, organism-based, Sprague-Dawley
Design: regimen Daily Repeat, gender Male, age 6 weeks
Details: in vivo, po, route gavage; for KIDNEY_L / KIDNEY_R / KIDNEY_TOTAL: tissue Kidney; for LIVER: tissue Liver; for ALP / AST / BUN / CRE / Ca / Cl / DBIL / GLC / IP / LDH / Na / PL / RALB / TBIL / TC / TG / TP / gamma-GTP: tissue Plasma
[1] = 10 mg/kg, 72 h, tissue Blood, dose level Low, time 3 day
[2] = 10 mg/kg, 72 h, dose level Low, time 3 day
[3] = 10 mg/kg, […], dose level Low, time 7 day
[4] = 10 mg/kg, […], dose level Low, time 14 day
[5] = 10 mg/kg, […], dose level Low, time 28 day
[6] = 10 mg/kg, […], tissue Blood, dose level Low, time 7 day
[7] = 10 mg/kg, […], tissue Blood, dose level Low, time 14 day
[8] = 10 mg/kg, […], tissue Blood, dose level Low, time 28 day

`CC(=O)N1CCN(c2ccc(OCC3COC(Cn4ccnc4)(c4ccc(Cl)cc4Cl)O3)cc2)CC1` (stereo unspecified) [KETOCONAZOLE] showed an APTT [1] of 19.5 s, a Bas [1] of 0% and an Eos [1] of 0.8%. The Fbg [1] was 308.2 mg/dL, the Hb [1] was 12.9 g/dL and the Ht [1] was 37.7%. The Lym [1] was 82.6%, the MCH [1] was 21.8 pg and the MCV [1] was 64 fL. The Mono [1] was 2%, the Neu [1] was 13.6% and the PT [1] was 16.3 s. It also gave a Plat [1] of 122.8 x10_4/uL, an RBC [1] of 589.4 x10_4/ul and a Ret [1] of 6.6%. It also gave a WBC [1] of 82 x10_2/uL, a KIDNEY_L [2] of 1 g and a KIDNEY_R [2] of 1 g. For the same compound, the KIDNEY_TOTAL [2] was 2.1 g, the LIVER [2] was 11.3 g and the ALP [2] was 1629.2 IU/L. The AST [2] was 75 IU/L, the BUN [2] was 18.2 mg/dL and the CRE [2] was 0.2 mg/dL. The Ca [2] was 11 mg/dL, the Cl [2] was 106.6 meq/L and the DBIL [2] was 0 mg/dL. The GLC [2] was 184.8 mg/dL, the IP [2] was 6.6 mg/dL and the LDH [2] was 226 IU/L. It also gave a Na [2] of 140.8 meq/L, a PL [2] of 152.6 mg/dL and an RALB [2] of 3 g/dL. The TBIL [2] was 0.006 mg/dL, the TC [2] was 78 mg/dL and the TG [2] was 100.6 mg/dL. It also gave a TP [2] of 5.7 g/dL, a gamma-GTP [2] of 1 IU/L and a TERMINAL_BW [3] of 260.1 g. It also gave a TERMINAL_BW [4] of 306.4 g, a TERMINAL_BW [5] of 374.4 g and an APTT [6] of 21.2 s. The Bas [6] was 0%, the Eos [6] was 1.2% and the Fbg [6] was 311 mg/dL. It also gave a Hb [6] of 13.6 g/dL, a Ht [6] of 40.3% and a Lym [6] of 80%. It also gave an MCH [6] of 21 pg, an MCV [6] of 62.2 fL and a Mono [6] of 2.4%. It also gave a Neu [6] of 15.6%, a PT [6] of 16.2 s and a Plat [6] of 111.8 x10_4/uL. It also gave an RBC [6] of 648.6 x10_4/ul, a Ret [6] of 5.4% and a WBC [6] of 117 x10_2/uL. The APTT [7] was 21.3 s, the Bas [7] was 0% and the Eos [7] was 0.8%. It also gave a Fbg [7] of 308.2 mg/dL, a Hb [7] of 13.6 g/dL and a Ht [7] of 40.2%. The Lym [7] was 81.6%, the MCH [7] was 20.3 pg and the MCHC [7] was 33.8%. The MCV [7] was 60.1 fL, the Mono [7] was 1.2% and the Neu [7] was 14.6%. For the same compound, the PT [7] was 15.9 s, the Plat [7] was 118 x10_4/uL and the RBC [7] was 669.2 x10_4/ul. The Ret [7] was 4.4%, the WBC [7] was 116.4 x10_2/uL and the APTT [8] was 23.8 s. It also gave a Bas [8] of 0%, an Eos [8] of 1% and a Fbg [8] of 308.8 mg/dL. For the same compound, the Hb [8] was 14.8 g/dL, the Ht [8] was 43.5% and the Lym [8] was 80.8%. The MCV [8] was 56.9 fL, the Mono [8] was 1.8% and the Neu [8] was 15.2%. For the same compound, the PT [8] was 16.8 s, the Plat [8] was 108.8 x10_4/uL and the RBC [8] was 764.6 x10_4/ul. The Ret [8] was 2.6%, the WBC [8] was 109.3 x10_2/uL and the KIDNEY_L [3] was 1.1 g. The KIDNEY_R [3] was 1.1 g, the KIDNEY_TOTAL [3] was 2.1 g and the KIDNEY_L [4] was 1.3 g. The KIDNEY_R [4] was 1.3 g, the KIDNEY_TOTAL [4] was 2.5 g and the KIDNEY_L [5] was 1.4 g. For the same compound, the KIDNEY_R [5] was 1.4 g, the KIDNEY_TOTAL [5] was 2.8 g and the LIVER [3] was 12.1 g. For the same compound, the LIVER [4] was 13.7 g, the LIVER [5] was 15.6 g and the ALP [3] was 1544.4 IU/L. The AST [3] was 68.4 IU/L, the BUN [3] was 19 mg/dL and the CRE [3] was 0.2 mg/dL. It also gave a Ca [3] of 10.6 mg/dL, a Cl [3] of 107 meq/L and a DBIL [3] of 0 mg/dL. The GLC [3] was 193 mg/dL, the IP [3] was 6.9 mg/dL and the LDH [3] was 228.6 IU/L. For the same compound, the Na [3] was 142 meq/L, the PL [3] was 144 mg/dL and the RALB [3] was 3 g/dL. The TBIL [3] was 0.004 mg/dL, the TC [3] was 71.6 mg/dL and the TG [3] was 120.2 mg/dL. For the same compound, the TP [3] was 5.7 g/dL, the gamma-GTP [3] was 1.2 IU/L and the ALP [4] was 1416.2 IU/L. It also gave an AST [4] of 67.6 IU/L, a BUN [4] of 17.6 mg/dL and a CRE [4] of 0.2 mg/dL. It also gave a Ca [4] of 10.6 mg/dL, a Cl [4] of 107 meq/L and a DBIL [4] of 0 mg/dL. It also gave a GLC [4] of 182.2 mg/dL, an IP [4] of 6.4 mg/dL and an LDH [4] of 187.6 IU/L. It also gave a Na [4] of 143 meq/L, a PL [4] of 155.2 mg/dL and an RALB [4] of 3.1 g/dL. For the same compound, the TBIL [4] was 0.004 mg/dL, the TC [4] was 77.8 mg/dL and the TP [4] was 5.8 g/dL. The gamma-GTP [4] was 1 IU/L, the ALP [5] was 1283.8 IU/L and the AST [5] was 59.2 IU/L. The BUN [5] was 17.8 mg/dL, the CRE [5] was 0.2 mg/dL and the Ca [5] was 10.4 mg/dL. For the same compound, the Cl [5] was 107.6 meq/L, the DBIL [5] was 0 mg/dL and the GLC [5] was 182.4 mg/dL. The IP [5] was 5.4 mg/dL, the LDH [5] was 138.4 IU/L and the Na [5] was 143 meq/L. The PL [5] was 140.6 mg/dL, the RALB [5] was 3.2 g/dL and the TBIL [5] was 0.004 mg/dL. The TC [5] was 69.8 mg/dL, the TG [5] was 121.2 mg/dL and the TP [5] was 6.1 g/dL. It also gave a gamma-GTP [5] of 1.2 IU/L, a TERMINAL_BW (30 mg/kg, 72 h, dose level Middle, time 3 day) of 228.5 g and an APTT (30 mg/kg, 72 h, tissue Blood, dose level Middle, time 3 day) of 20.7 s.
